Data from BigSolDB 2.1.

CN(C)[C@@H]1C(=O)C(C(N)=O)=C(O)[C@@]2(O)C(=O)C3=C(O)c4c(O)cccc4C[C@H]3C[C@@H]12
solubility (mole fraction)
Conditions	278.15 K	283.15 K	288.15 K	293.15 K	298.15 K	303.15 K	308.15 K	313.15 K	318.15 K
in 1,4-dioxane	–	–	0.00134	0.00159	0.00188	0.0022	0.00255	0.00294	0.00336
in acetonitrile	0.000118	0.00013	0.000143	0.000156	0.000171	0.000188	0.000206	0.000226	0.000248
in cyclohexane	7.64e-06	1.05e-05	1.42e-05	1.93e-05	2.47e-05	3.03e-05	3.85e-05	4.74e-05	5.7e-05
in ethanol	0.000131	0.000144	0.000158	0.000172	0.000188	0.000207	0.000225	0.000244	0.000264
in ethyl acetate	0.00032	0.000392	0.000464	0.000551	0.000649	0.000761	0.000882	0.00103	0.00119
in isobutanol	3.76e-05	4.32e-05	4.9e-05	5.53e-05	6.3e-05	7.17e-05	8.14e-05	9.21e-05	0.000103
in isopropanol	4.02e-05	4.65e-05	5.37e-05	6.18e-05	7.05e-05	8.05e-05	9.19e-05	0.000105	0.000118
in methanol	0.000166	0.000183	0.0002	0.000218	0.000237	0.000258	0.000282	0.000306	0.000332
in n-butanol	4.76e-05	5.56e-05	6.47e-05	7.34e-05	8.37e-05	9.51e-05	0.000107	0.000121	0.000135
in n-hexane	3.64e-05	4.07e-05	4.51e-05	5.06e-05	5.66e-05	6.34e-05	7.17e-05	8.08e-05	8.98e-05
in n-octanol	3.16e-05	3.56e-05	3.99e-05	4.48e-05	5.08e-05	5.71e-05	6.47e-05	7.21e-05	8.04e-05
in n-propanol	0.000101	0.000106	0.000112	0.00012	0.000128	0.000136	0.000145	0.000155	0.000166
